Source: patent US20240166660A1, “KRAS G12C INHIBITORS” (BeiGene Switzerland GmbH, priority 2021, published 2024)
pIC50: −log10 of the molar value.

Target: KRAS (aa 1-169) G12C, C51S, C80L, C118S (Homo sapiens (Human), UniProt P01116, C118S/C51S/C80L/G12C)
Assay: Biochemical functional assay: SOS1-mediated nucleotide exchange of GDP-loaded KRAS G12C, binding to GST-cRaf RBD, FRET readout
Settings: 3 hrs pre-incubation with compound at 24° C., SOS1, GTPyS; for pIC50: inhibition of nucleotide exchange
How it was run: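 GDP-loaded His-tagged KRAS construct preincubated with compound 3 h at 24° C in 25 mM HEPES pH7.5, 10 mM MgCl2, 0.01% Triton X-100; SOS1 (aa 564-1049), GTPγS and GST-cRaf RBD added for 3 h, then anti-His Tb cryptate/anti-GST XL665 for 3 h. HTRF 665/620 ratio; IC50 by four-parameter logistic fit.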

KRAS (aa 1-169) G12C, C51S, C80L, C118S, sequence (P01116 other isoform, or with tags, fused parts or gaps G12C/C51S/C80L/C118S): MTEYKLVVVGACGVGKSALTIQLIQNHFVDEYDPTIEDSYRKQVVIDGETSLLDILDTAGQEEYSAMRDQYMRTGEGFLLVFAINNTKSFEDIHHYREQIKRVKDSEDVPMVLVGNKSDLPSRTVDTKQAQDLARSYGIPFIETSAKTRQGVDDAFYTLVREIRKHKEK

Row | SMILES | pIC50 | IC50 (bound in uM) [µM]
1 | C=CC(=O)N1C[C@H](C)N(c2nc(OC[C@@H]3CCCN3C)nc3cc(-c4c(Cl)c(C)cc5[nH]ncc45)c4ccoc4c23)C[C@H]1C [Compound B62, 1-((2R,5S)-4-(4-(5-chloro-6-methyl-1H-indazol-4-yl)-7-(((S)-1-methylpyrrolidin-2-yl)methoxy)furo[2,3-f]quinazolin-9-yl)-2,5-dimethylpiperazin-1-yl)prop-2-en-1-one] | 6.19 | 
2 | C=C(F)C(=O)N1CCN(c2nc(OC[C@@H]3CCCN3C)nc3cc(-c4ccccc4F)c4ccoc4c23)CC1 [Compound B44, (S)-2-fluoro-1-(4-(4-(2-fluorophenyl)-7-((1-methylpyrrolidin-2-yl)methoxy)furo[2,3-f]quinazolin-9-yl)piperazin-1-yl)prop-2-en-1-one] | 5.20 | 
3 | C=C(F)C(=O)N1CCN(c2nc(OC3COCC3N(C)C)nc3cc(-c4cccc5cccc(Cl)c45)c4c(c23)OCCC4)C[C@@H]1CC#N (stereo partly drawn) [Compound B69, 2-((2S)-4-(5-(8-chloronaphthalen-1-yl)-8-((4-(dimethylamino)tetrahydrofuran-3-yl)oxy)-3,4-dihydro-2H-pyrano[2,3-f]quinazolin-10-yl)-1-(2-fluoroacryloyl)piperazin-2-yl)acetonitrile] | 5.91 | 
4 | C=C(F)C(=O)N1CCN(c2nc(N3CC(CC#N)(N(C)C)C3)nc3cc(-c4cccc5cccc(Cl)c45)c4c(c23)OCCC4)C[C@@H]1CC#N (single isomer, unassigned) [Compound B91] | 7.82 | 
5 | C=C(F)C(=O)N1CCN(c2nc(O[C@@H]3CCCC[C@H]3N(C)C)nc3cc(-c4cccc5cccc(Cl)c45)c4c(c23)OCCC4)C[C@@H]1CC#N [Compound B61, 2-((S)-4-(5-(8-chloronaphthalen-1-yl)-8-(((1R,2R)-2-(dimethylamino)cyclohexyl)oxy)-3,4-dihydro-2H-pyrano[2,3-f]quinazolin-10-yl)-1-(2-fluoroacryloyl)piperazin-2-yl)acetonitrile] | 6.73 | 
6 | C=CC(=O)N1CCN(c2nc(N3CC(N(C)C)C3)nc3cc(-c4c(F)cccc4F)c4c(c23)OCCC4)CC1 [Compound B2, 1-(4-(5-(2,6-difluorophenyl)-8-(3-(dimethylamino)azetidin-1-yl)-3,4-dihydro-2H-pyrano[2,3-f]quinazolin-10-yl)piperazin-1-yl)prop-2-en-1-one] | 5.65 | 
7 | C=CC(=O)N1CCN(c2ncnc3cc(-c4c(C)ccc5[nH]ncc45)c4c(c23)OCCC4)CC1 [Compound A13, 1-(4-(5-(5-methyl-1H-indazol-4-yl)-3,4-dihydro-2H-pyrano[2,3-f]quinazolin-10-yl)piperazin-1-yl)prop-2-en-1-one] | 5.48 | 
8 | C=CC(=O)N1CCN(c2nc(OC[C@@H]3CCCN3C)nc3cc(-c4ccccc4F)c4ccoc4c23)CC1 [Compound B45, (S)-1-(4-(4-(2-fluorophenyl)-7-((1-methylpyrrolidin-2-yl)methoxy)furo[2,3-f]quinazolin-9-yl)piperazin-1-yl)prop-2-en-1-one] | 5.69 | 
9 | C=CC(=O)N1CCN(c2nc(N3CCC(N(C)C)C3)nc3cc(-c4c(Cl)c(C)cc5[nH]ncc45)c4c(c23)OCCC4)CC1 (stereo not drawn) [Compound B25, 1-(4-(5-(5-chloro-6-methyl-1H-indazol-4-yl)-8-(3-(dimethylamino)pyrrolidin-1-yl)-3,4-dihydro-2H-pyrano[2,3-f]quinazolin-10-yl)piperazin-1-yl)prop-2-en-1-one] | 6.86 | 
10 | C=C(F)C(=O)N1CCN(c2nc(N3CC(N(C)C)C3)nc3cc(-c4c(O)cccc4F)c4c(c23)OCCC4)C[C@@H]1CC#N [Compound B8, 2-((2S)-4-(8-(3-(dimethylamino)azetidin-1-yl)-5-(2-fluoro-6-hydroxyphenyl)-3,4-dihydro-2H-pyrano[2,3-f]quinazolin-10-yl)-1-(2-fluoroacryloyl)piperazin-2-yl)acetonitrile] | 6.59 | 
11 | C=C(F)C(=O)N1CCN(c2nc(N3CC(N(C)C)C3)nc3cc(-c4cccc5cccc(Cl)c45)c4c(c23)OCCC4)C[C@@H]1CC#N [Compound B100, (S)-2-(4-(5-(8-chloronaphthalen-1-yl)-8-(3-(dimethylamino)azetidin-1-yl)-3,4-dihydro-2H-pyrano[2,3-f]quinazolin-10-yl)-1-(2-fluoroacryloyl)piperazin-2-yl)acetonitrile] | 7.74 | 
12 | C=C(F)C(=O)N1CCN(c2nc(N3CC(CC#N)(N(C)C)C3)nc3cc(-c4cccc5cccc(Cl)c45)c4ccoc4c23)C[C@@H]1CC#N [Compound B80, (S)-2-(4-(4-(8-chloronaphthalen-1-yl)-7-(3-(cyanomethyl)-3-(dimethylamino)azetidin-1-yl)furo[2,3-f]quinazolin-9-yl)-1-(2-fluoroacryloyl)piperazin-2-yl)acetonitrile] | 6.65 | 
13 | C=CC(=O)N1CCN(c2nc(N3CC(N(C)C)C3)nc3cc(-c4ccccc4C(F)(F)F)c4ccoc4c23)CC1 [Compound B83, 1-(4-(7-(3-(dimethylamino)azetidin-1-yl)-4-(2-(trifluoromethyl)phenyl)furo[2,3-f]quinazolin-9-yl)piperazin-1-yl)prop-2-en-1-one] | 5.77 | 
14 | C=C(F)C(=O)N1CCN(c2nc(OC[C@@H]3COCCN3C)nc3cc(-c4cccc5cccc(Cl)c45)c4c(c23)OCCC4)C[C@@H]1CC#N [Compound B72, 2-((S)-4-(5-(8-chloronaphthalen-1-yl)-8-(((S)-4-methylmorpholin-3-yl)methoxy)-3,4-dihydro-2H-pyrano[2,3-f]quinazolin-10-yl)-1-(2-fluoroacryloyl)piperazin-2-yl)acetonitrile] | 6.71 | 
15 | C=C(F)C(=O)N1CCN(c2nc(OC[C@@H]3CCCN3C)nc3cc(-c4ccccc4C(F)(F)F)c4c(c23)OCCC4)C[C@@H]1CC#N [Compound B33, 2-((S)-1-(2-fluoroacryloyl)-4-(8-(((S)-1-methylpyrrolidin-2-yl)methoxy)-5-(2-(trifluoromethyl)phenyl)-3,4-dihydro-2H-pyrano[2,3-f]quinazolin-10-yl)piperazin-2-yl)acetonitrile] | 7.29 | 
16 | C=C(F)C(=O)N1CCN(c2nc(OC[C@@H]3CCCN3C)nc3cc(-c4c(F)c(Cl)cc5[nH]ncc45)c4c(c23)OCCC4)C[C@@H]1CC#N [Compound B42, 2-((2S)-4-(5-(6-chloro-5-fluoro-1H-indazol-4-yl)-8-(((S)-1-methylpyrrolidin-2-yl)methoxy)-3,4-dihydro-2H-pyrano[2,3-f]quinazolin-10-yl)-1-(2-fluoroacryloyl)piperazin-2-yl)acetonitrile] | 7.37 | 
17 | C=C(F)C(=O)N1CCN(c2nc(OC[C@@H]3CCCN3C)nc3cc(-c4ccccc4C(F)(F)F)c4ccoc4c23)C[C@@H]1CC#N [Compound B40, 2-((S)-1-(2-fluoroacryloyl)-4-(7-(((S)-1-methylpyrrolidin-2-yl)methoxy)-4-(2-(trifluoromethyl)phenyl)furo[2,3-f]quinazolin-9-yl)piperazin-2-yl)acetonitrile] | 7.85 | 
18 | C=C(F)C(=O)N1CCN(c2nc(OC[C@@H]3CCCN3C)nc3cc(-c4c(Cl)c(C)cc5[nH]ncc45)c4ccoc4c23)C[C@@H]1CC#N [Compound B35, 2-((2S)-4-(4-(5-chloro-6-methyl-1H-indazol-4-yl)-7-(((S)-1-methylpyrrolidin-2-yl)methoxy)furo[2,3-f]quinazolin-9-yl)-1-(2-fluoroacryloyl)piperazin-2-yl)acetonitrile] | 8.08 | 
19 | C=C(F)C(=O)N1CCN(c2nc(OC[C@@H]3CCCN3C)nc3cc(-c4ccccc4C4CC4)c4c(c23)OCCC4)C[C@@H]1CC#N [Compound B32, 2-((S)-4-(5-(2-cyclopropylphenyl)-8-(((S)-1-methylpyrrolidin-2-yl)methoxy)-3,4-dihydro-2H-pyrano[2,3-f]quinazolin-10-yl)-1-(2-fluoroacryloyl)piperazin-2-yl)acetonitrile] | 6.65 | 
20 | C=CC(=O)N1CCN(c2nc(OC[C@@H]3CCCN3C)nc3cc(-c4c(Cl)c(C)cc5[nH]ncc45)c4c(c23)OCCC4)C[C@@H]1CC#N [Compound B1, 2-((2S)-1-acryloyl-4-(5-(5-chloro-6-methyl-1H-indazol-4-yl)-8-(((S)-1-methylpyrrolidin-2-yl)methoxy)-3,4-dihydro-2H-pyrano[2,3-f]quinazolin-10-yl)piperazin-2-yl)acetonitrile] | 8.52 | 
21 | C=CC(=O)N1CCN(c2ncnc3cc(-c4ccc(O)c(Cl)c4)c4c(c23)OCCC4)C[C@@H]1CC#N [Compound A27, (S)-2-(1-acryloyl-4-(5-(3-chloro-4-hydroxyphenyl)-3,4-dihydro-2H-pyrano[2,3-f]quinazolin-10-yl)piperazin-2-yl)acetonitrile] |  | > 10
22 | C=C(F)C(=O)N1CCN(c2nc(OC[C@@H]3CCCN3C)nc3cc(-c4c(Cl)c(C)cc5[nH]ncc45)c4c(c23)OCCC4)C[C@@H]1CC#N (single isomer, unassigned; atropisomer 2) [Compound B13] | 6.49 | 
23 | C=CC(=O)N1CCN(c2nc(OC[C@@H]3CCCN3C)nc3cc(-c4c(C)cccc4Cl)c4ccoc4c23)CC1 [Compound B76, 1-(4-(4-(2-chloro-6-methylphenyl)-7-(((S)-1-methylpyrrolidin-2-yl)methoxy)furo[2,3-f]quinazolin-9-yl)piperazin-1-yl)prop-2-en-1-one] | 6.55 | 
24 | C=C(F)C(=O)N1CCN(c2nc(OC3CCCN(C)C3)nc3cc(-c4cccc5cccc(Cl)c45)c4c(c23)OCCC4)C[C@@H]1CC#N (stereo partly drawn) [Compound B84, 2-((2S)-4-(5-(8-chloronaphthalen-1-yl)-8-((1-methylpiperidin-3-yl)oxy)-3,4-dihydro-2H-pyrano[2,3-f]quinazolin-10-yl)-1-(2-fluoroacryloyl)piperazin-2-yl)acetonitrile] | 6.32 | 
